The results in this text go back to PMC8617627, “Novel DYRK1A Inhibitor Rescues Learning and Memory Deficits in a Mouse Model of Down Syndrome” (Pharmaceuticals, 2021).

Common to all, as to experiment: Kinase profile (33P ATP filter binding)
Holding throughout (format): biochemical

In experiment [1] the target is T1, IKKb (Homo sapiens, UniProt O14920).
T1 sequence (O14920 1-756): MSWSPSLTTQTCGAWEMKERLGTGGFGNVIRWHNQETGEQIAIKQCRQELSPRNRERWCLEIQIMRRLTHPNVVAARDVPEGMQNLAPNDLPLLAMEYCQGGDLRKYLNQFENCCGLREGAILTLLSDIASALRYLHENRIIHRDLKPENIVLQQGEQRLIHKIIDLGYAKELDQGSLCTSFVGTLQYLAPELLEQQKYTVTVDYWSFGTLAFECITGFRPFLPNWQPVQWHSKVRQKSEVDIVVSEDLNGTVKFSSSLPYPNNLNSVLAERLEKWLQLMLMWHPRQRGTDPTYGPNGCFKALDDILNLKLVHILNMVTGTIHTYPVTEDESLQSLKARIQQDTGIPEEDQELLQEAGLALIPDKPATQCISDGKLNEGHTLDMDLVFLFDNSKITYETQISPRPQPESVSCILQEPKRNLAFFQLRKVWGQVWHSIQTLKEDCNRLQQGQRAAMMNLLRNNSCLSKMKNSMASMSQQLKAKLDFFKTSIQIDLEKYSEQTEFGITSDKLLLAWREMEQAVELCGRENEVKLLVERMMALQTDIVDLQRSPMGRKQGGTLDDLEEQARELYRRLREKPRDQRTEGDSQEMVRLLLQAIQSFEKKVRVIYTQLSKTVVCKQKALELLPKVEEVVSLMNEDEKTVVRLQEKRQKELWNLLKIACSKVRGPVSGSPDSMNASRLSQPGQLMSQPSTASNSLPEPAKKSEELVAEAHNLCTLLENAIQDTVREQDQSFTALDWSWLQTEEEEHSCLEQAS
The following applies: read-out: Remaining protein kinase activity.

The target in experiment [2] is T2, IRAK4 (Homo sapiens, UniProt Q9NWZ3).
T2 sequence (Q9NWZ3 1-460): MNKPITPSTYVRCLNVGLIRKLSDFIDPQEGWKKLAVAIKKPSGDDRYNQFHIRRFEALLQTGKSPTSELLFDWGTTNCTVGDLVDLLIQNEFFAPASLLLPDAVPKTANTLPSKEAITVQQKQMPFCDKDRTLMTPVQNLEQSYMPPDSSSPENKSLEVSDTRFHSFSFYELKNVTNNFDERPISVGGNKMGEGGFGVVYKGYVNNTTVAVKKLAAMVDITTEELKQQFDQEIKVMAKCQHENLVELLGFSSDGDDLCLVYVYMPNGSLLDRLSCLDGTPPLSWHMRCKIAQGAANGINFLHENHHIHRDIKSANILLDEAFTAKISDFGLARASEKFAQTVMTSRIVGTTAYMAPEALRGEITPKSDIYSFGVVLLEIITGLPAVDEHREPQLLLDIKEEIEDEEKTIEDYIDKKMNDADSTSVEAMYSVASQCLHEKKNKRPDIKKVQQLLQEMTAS

Experiment [3] concerns the target T3, PDK1 (Homo sapiens, UniProt O15530).
T3 sequence (O15530 1-556): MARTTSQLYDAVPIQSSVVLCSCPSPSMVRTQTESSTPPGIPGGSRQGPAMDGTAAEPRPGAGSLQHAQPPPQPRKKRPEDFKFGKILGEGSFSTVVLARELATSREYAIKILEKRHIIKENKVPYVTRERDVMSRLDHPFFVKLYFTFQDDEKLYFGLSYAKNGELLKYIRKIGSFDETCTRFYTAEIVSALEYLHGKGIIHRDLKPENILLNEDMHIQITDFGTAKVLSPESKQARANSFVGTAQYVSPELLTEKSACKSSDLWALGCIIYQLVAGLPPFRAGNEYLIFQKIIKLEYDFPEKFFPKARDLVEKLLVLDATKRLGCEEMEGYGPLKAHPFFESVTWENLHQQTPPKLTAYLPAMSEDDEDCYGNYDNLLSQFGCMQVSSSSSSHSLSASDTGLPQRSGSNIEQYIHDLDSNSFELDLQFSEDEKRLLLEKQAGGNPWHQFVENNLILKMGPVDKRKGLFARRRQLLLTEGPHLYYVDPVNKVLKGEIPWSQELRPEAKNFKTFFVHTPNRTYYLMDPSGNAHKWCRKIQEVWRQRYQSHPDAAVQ
The conditions noted are these: read-out: Remaining protein kinase activity.

Experiment [4] addresses T4, PRAK (Homo sapiens, UniProt Q8IW41).
T4 sequence (Q8IW41 1-473): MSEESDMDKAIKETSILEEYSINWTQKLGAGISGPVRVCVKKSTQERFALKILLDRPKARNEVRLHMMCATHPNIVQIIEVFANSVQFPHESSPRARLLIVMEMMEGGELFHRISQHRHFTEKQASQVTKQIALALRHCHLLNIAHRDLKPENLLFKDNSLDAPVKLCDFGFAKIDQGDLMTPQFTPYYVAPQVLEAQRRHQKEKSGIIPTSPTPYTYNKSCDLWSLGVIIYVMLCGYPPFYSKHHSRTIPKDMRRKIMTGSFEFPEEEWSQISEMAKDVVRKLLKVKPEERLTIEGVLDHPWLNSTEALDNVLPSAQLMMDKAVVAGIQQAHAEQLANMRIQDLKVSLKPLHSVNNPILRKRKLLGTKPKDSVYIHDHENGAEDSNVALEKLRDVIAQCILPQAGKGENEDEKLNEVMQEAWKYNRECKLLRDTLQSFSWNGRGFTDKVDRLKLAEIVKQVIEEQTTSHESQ
The following applies: read-out: Remaining protein kinase activity.

Experiment [5] addresses ERK1 (Homo sapiens, UniProt P27361). The conditions noted are these: read-out: Remaining protein kinase activity.

Read-outs that look alike come from different tables or passages of the source.

Chain of ERK1 (P27361 whole entry, species assumed): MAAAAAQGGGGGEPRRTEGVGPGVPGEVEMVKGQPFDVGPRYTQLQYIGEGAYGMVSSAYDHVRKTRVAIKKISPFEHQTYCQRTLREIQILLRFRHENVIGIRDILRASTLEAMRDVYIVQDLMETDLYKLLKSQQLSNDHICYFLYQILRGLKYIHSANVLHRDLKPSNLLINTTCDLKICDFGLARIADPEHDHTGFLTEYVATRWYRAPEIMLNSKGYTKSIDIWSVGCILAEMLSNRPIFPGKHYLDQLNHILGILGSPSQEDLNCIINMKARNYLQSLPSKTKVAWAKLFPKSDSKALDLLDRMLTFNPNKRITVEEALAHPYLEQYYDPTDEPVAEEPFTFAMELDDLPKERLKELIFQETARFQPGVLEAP

As a reminder, the remaining activity is the signal under treatment as a percentage of the control signal. For `COc1ccc2sc(-c3cncc(N)c3)nc2c1` [compound 1, 5-(5-Methoxybenzo[d]thiazol-2-yl)pyridin-3-amine], the remaining activity at 1 µM in experiment [1] (IKKb, 1 μM) is 105%; in experiment [3] (PDK1, 1 μM), 104%; in experiment [4] (PRAK, 1 μM), 128%; in experiment [5] (ERK1, 1 μM), 99%. The remaining activity at 100 µM came to 38% in experiment [1] (IKKb, 100 μM); 67% in experiment [3] (PDK1, 100 μM); 36% in experiment [4] (PRAK, 100 μM); 81% in experiment [5] (ERK1, 100 μM). Further, the figures for the “Remaining protein kinase activity” value in experiment [2] (1 μM) and in experiment [2] (100 μM) were 85% and 18%, respectively.
As to `COc1ccc2sc(-c3cncc(NC(C)=O)c3)nc2c1` [PST-001, N-(5-(5-Methoxybenzo[d]thiazol-2-yl)pyridin-3-yl)acetamide], the remaining activity at 1 µM stood at 111% in experiment [1], 110% in experiment [3], 114% in experiment [4] and 109% in experiment [5]. For the same molecule, the remaining activity at 100 µM in experiment [1] was determined as 108%; in experiment [3], 105%; in experiment [4], 116%; in experiment [5] it was 108%. Besides, the “Remaining protein kinase activity” value in experiment [2] (1 μM) came to 88%; in experiment [2] (100 μM), 32%.
